The text below walks through data of patent publication US20240140944A1, “NOVEL NAPHTHYRIDINONE DERIVATIVE HAVING INHIBITORY ACTIVITY AGAINST ECTONUCLEOTIDE PYROPHOSPHATASE-PHOSPHODIESTERASE AND USE THEREOF” (TXINNO BIOSCIENCE INC., priority 2020, published 2024).

In assay [1] the target is T1, human recombinant ENPP1 enzymes (Homo sapiens, UniProt P22413).
T1 construct: purchased R & D systems
T1 sequence (P22413 1-925): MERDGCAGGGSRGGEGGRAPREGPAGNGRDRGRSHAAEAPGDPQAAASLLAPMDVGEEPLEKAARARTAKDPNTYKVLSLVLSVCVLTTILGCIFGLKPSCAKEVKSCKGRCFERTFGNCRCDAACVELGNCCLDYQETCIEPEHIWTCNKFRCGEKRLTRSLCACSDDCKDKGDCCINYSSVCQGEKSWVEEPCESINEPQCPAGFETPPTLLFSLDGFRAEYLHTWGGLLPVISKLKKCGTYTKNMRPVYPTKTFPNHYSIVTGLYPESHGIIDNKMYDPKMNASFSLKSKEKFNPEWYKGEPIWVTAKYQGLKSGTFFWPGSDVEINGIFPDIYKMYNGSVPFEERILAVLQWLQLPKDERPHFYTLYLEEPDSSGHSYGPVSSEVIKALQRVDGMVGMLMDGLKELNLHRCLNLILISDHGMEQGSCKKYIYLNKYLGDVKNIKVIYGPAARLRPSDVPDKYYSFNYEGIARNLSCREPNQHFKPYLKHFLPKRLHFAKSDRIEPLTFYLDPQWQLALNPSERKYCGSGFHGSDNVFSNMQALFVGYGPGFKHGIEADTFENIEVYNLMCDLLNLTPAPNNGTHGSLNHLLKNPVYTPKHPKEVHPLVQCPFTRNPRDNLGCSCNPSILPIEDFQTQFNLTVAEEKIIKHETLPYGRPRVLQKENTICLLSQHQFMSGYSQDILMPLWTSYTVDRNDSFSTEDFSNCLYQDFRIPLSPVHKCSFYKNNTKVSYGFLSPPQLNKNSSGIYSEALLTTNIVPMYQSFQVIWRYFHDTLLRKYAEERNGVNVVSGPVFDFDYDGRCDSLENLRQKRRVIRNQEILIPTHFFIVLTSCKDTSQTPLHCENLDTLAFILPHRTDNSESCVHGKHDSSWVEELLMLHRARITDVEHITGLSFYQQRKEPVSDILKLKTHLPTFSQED
In words: ENPP1 Enzyme Assay with cGAMP Substrate (AMP-Glo). It is filed as biochemical. The conditions noted are these: human recombinant ENPP1 3 ng/reaction, cGAMP 5 μM, 37° C. 90 minutes, average of two or more tests; read-out: Enzymatic activity IC50. The method, boiled down:
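Human recombinant ENPP1 (3 ng/reaction) preincubated 5–10 min at RT with inhibitor, then reacted with 5 µM cGAMP for 90 min at 37 °C in 50 mM Tris pH 8.5, 250 mM NaCl, 0.5 mM CaCl2, 1 µM ZnCl2, 1% DMSO. AMP produced read by AMP-Glo luminescence; IC50 from 3-parameter fit, averaged over ≥2 runs.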

Assay [2] has as its system interferon regulatory factor 3 (IRF3) in HCT116-Dual cells. In words: HCT116-Dual Cell Luciferase Assay (ISG54 promoter, IRF3 activity). The conditions noted are these: ENPP1 inhibitor usually 10 μM plus cGAMP 10 μM, 48 hours, Lucia luciferase. It is filed as cell-based. The text has this: HCT116-Dual™ cells express genes encoding luciferase secreted under the control of the interferon-stimulated gene 54 (ISG54) promoter along with five interferon-stimulated response elements. The HCT116-Dual™ cell line was used to measure and monitor the activity of interferon regulatory factor 3 (IRF3), which induces production of type I interferon and relates to downstream signaling, and Lucia secreted in the culture medium was used to generate luminescence in a luciferase reaction.
HCT116-Dual™ cells were cultured at 2×10^4 cells/well (93.4 μL) in a 96-well plate for one day in a DMEM medium containing 10% FBS and 25 mM HEPES (pH 7.2-7.5). The cells were treated with 3.3 μL of ENPP1 inhibitor (usually 10 μM) and then 3.3 μL of cGAMP (10 μM) to set the final volume to 100 μL (The final fraction of DMSO was 0.1%). The cells treated with ENPP1 inhibitor and cGAMP were cultured at 37° C. for 48 hours and 50 μL of Quanti-Luc reaction solution was added to 20 μL of cell culture medium to measure luciferase activity. The increase in interferon regulatory factor 3 (IRF3) by the compound compared to cGAMP was determined as fold.

Where a name gives a salt, the structure may show the parent alone.

As a reminder, the IC50 is the concentration at which inhibition is half-maximal. As to `NCCc1ccc(F)c(Nc2ccnc3[nH]c(=O)ccc23)c1` [Example 79, 5-((5-(2-aminoethyl)-2-fluorophenyl)amino)-1,8-naphthyridin-2(1H)-one dihydrochloride], the half-maximal inhibitory concentration (IC50) in assay [1] was in the range of 1000 to 10000 nM. Besides, the “Cellular activity: increase in IRF3 by the compound compared to cGAMP, as fold” value (“Cellular activity: increase in IRF3 … as fold” for short) in assay [2] is recorded as “B (1< Fold <2)”.
The like results for `NS(=O)(=O)N1CCc2ccc(-c3ccnc4[nH]c(=O)ccc34)cc2C1` [Example 65, 7-(7-oxo-7,8-dihydro-1,8-naphthyridin-4-yl)dihydroisoquinoline-2(1H)-sulfamide hydrochloride] were, in that order, less than 1000 nM and “B (1< Fold <2)”.
The like results for `Cl.O=c1ccc2c(-c3ccc(CNC4CC4)c(F)c3)ccnc2[nH]1` [Example 25, 5-(4-((cyclopropylamino)methyl)-3-fluorophenyl)-1,8-naphthyridin-2(1H)-one hydrochloride] were, in that order, 1000 to 10000 nM and “A (>2)”.
Taken in the same sequence, the figures for `Cl.NS(=O)(=O)N(Cc1ccc(-c2ccnc3[nH]c(=O)ccc23)cc1F)C1CC1` [Example 54, N-cyclopropyl-N-(2-fluoro-4-(7-oxo-7,8-dihydro-1,8-naphthyridin-4-yl)benzyl)sulfamide hydrochloride] were less than 1000 nM and “B (1< Fold <2)”.
On to `CNCc1ccc(-c2ccnc3[nH]c(=O)ccc23)cc1F.Cl` [Example 23, 5-(3-fluoro-4-((methylamino)methyl)phenyl)-1,8-naphthyridin-2(1H)-one hydrochloride], for which the IC50 in assay [1] was in the range of 1000 to 10000 nM. Moreover, the “Cellular activity: increase in IRF3 … as fold” value in assay [2] is “B (1< Fold <2)”.
The like results for `CN(Cc1ccc(-c2ccnc3[nH]c(=O)ccc23)c(F)c1)S(N)(=O)=O.Cl` [Example 55, N-(3-fluoro-4-(7-oxo-7,8-dihydro-1,8-naphthyridin-4-yl)benzyl)-N-methylsulfamide hydrochloride] were, in that order, less than 1000 nM and “B (1< Fold <2)”.
The like results for `NS(=O)(=O)NCc1ccc(-c2ccnc3[nH]c(=O)ccc23)c(F)c1F` [Example 43, N-(2,3-difluoro-4-(7-oxo-7,8-dihydro-1,8-naphthyridin-4-yl)benzyl)sulfamide hydrochloride] were, in that order, less than 1000 nM and “B (1< Fold <2)”.
The like results for `CC(N)c1ccc(-c2ccnc3[nH]c(=O)ccc23)cc1.Cl` (centres unmarked) [Example 14, 5-(4-(1-aminoethyl)phenyl)-1,8-naphthyridin-2(1H)-one hydrochloride] were, in that order, less than 1000 nM and “B (1< Fold <2)”.
With `NS(=O)(=O)N1Cc2ccc(-c3ccnc4[nH]c(=O)ccc34)cc2C1` [Example 64, 5-(7-oxo-7,8-dihydro-1,8-naphthyridin-4-yl)isoindolin-2-yl)sulfamide hydrochloride], the half-maximal inhibitory concentration (IC50) in assay [1] is less than 1000 nM. Moreover, the “Cellular activity: increase in IRF3 … as fold” value in assay [2] is recorded as “B (1< Fold <2)”.
For the compound `NS(=O)(=O)Nc1cccc(-c2ccnc3[nH]c(=O)ccc23)c1` [Example 35, N-(3-(7-oxo-7,8-dihydro-1,8-naphthyridin-4-yl)phenyl)sulfamide hydrochloride], in assay [1], the IC50 was less than 1000 nM. Moreover, the “Cellular activity: increase in IRF3 … as fold” value in assay [2] is listed as “B (1< Fold <2)”.
Taken in the same sequence, the figures for `NS(=O)(=O)Nc1cc(-c2ccnc3[nH]c(=O)ccc23)ccc1F` [Example 36, N-(2-fluoro-5-(7-oxo-7,8-dihydro-1,8-naphthyridin-4-yl)phenyl)sulfamide hydrochloride] were less than 1000 nM and “B (1< Fold <2)”.
As for `NS(=O)(=O)NCc1cc(-c2ccnc3[nH]c(=O)ccc23)ccc1F` [Example 38, N-(2-fluoro-5-(7-oxo-7,8-dihydro-1,8-naphthyridin-4-yl)benzyl)sulfamide hydrochloride], in assay [1], the 50% inhibitory concentration (IC50) was less than 1000 nM. Further, the “Cellular activity: increase in IRF3 … as fold” value in assay [2] is recorded as “B (1< Fold <2)”.
Taken in the same sequence, the figures for `NS(=O)(=O)N1CCc2ccc(Nc3ccnc4[nH]c(=O)ccc34)cc2C1` [Example 102, 7-((7-oxo-7,8-dihydro-1,8-naphthyridin-4-yl)amino)-3,4-dihydroisoquinolin-2(1H)-yl)sulfamide dihydrochloride] were less than 1000 nM and “A (>2)”.
Taken in the same sequence, the figures for `CN(Cc1ccc(-c2ccnc3[nH]c(=O)ccc23)cc1F)S(N)(=O)=O.Cl` [Example 52, N-(2-fluoro-4-(7-oxo-7,8-dihydro-1,8-naphthyridin-4-yl)benzyl)-N-methylsulfamide hydrochloride] were less than 1000 nM and “B (1< Fold <2)”.
Taken in the same sequence, the figures for `CCNCc1ccc(-c2ccnc3[nH]c(=O)ccc23)cc1F.Cl` [Example 24, 5-(4-((ethylamino)methyl)-3-fluorophenyl)-1,8-naphthyridin-2(1H)-one hydrochloride] were more than 10000 nM and “B (1< Fold <2)”.
As for `Cl.O=c1ccc2c(-c3cc4c(cc3F)CCNC4)ccnc2[nH]1` [Example 28, 5-(6-fluoro-1,2,3,4-tetrahydroisoquinolin-7-yl)-1,8-naphthyridin-2(1H)-one hydrochloride], the IC50 in assay [1] is less than 1000 nM. Besides, the “Cellular activity: increase in IRF3 … as fold” value in assay [2] is “B (1< Fold <2)”.
Taken in the same sequence, the figures for `Cl.NCc1ccc(-c2ccnc3[nH]c(=O)ccc23)cc1F` [Example 12, 5-(4-(aminomethyl)-3-fluorophenyl)-1,8-naphthyridin-2(1H)-one hydrochloride] were less than 1000 nM and “A (>2)”.
Taken in the same sequence, the figures for `Cl.NCc1ccc(-c2ccnc3[nH]c(=O)ccc23)c(F)c1` [Example 11, 5-(4-(aminomethyl)-2-fluorophenyl)-1,8-naphthyridin-2(1H)-one hydrochloride] were less than 1000 nM and “A (>2)”.
For `CN(CCc1cccc(Nc2ccnc3[nH]c(=O)ccc23)c1)S(N)(=O)=O` [Example 93, N-methyl-N-(3-((7-oxo-7,8-dihydro-1,8-naphthyridin-4-yl)amino)phenethyl)sulfamide dihydrochloride], the IC50 in assay [1] was less than 1000 nM. For the same compound, in assay [2], the “Cellular activity: increase in IRF3 … as fold” value is listed as “B (1< Fold <2)”.
Taken in the same sequence, the figures for `NS(=O)(=O)NCc1cccc(-c2ccnc3c2CCC(=O)N3)c1` [Example 140, N-(3-(7-oxo-5,6,7,8-tetrahydro-1,8-naphthyridin-4-yl)benzyl)sulfamide] were less than 1000 nM and “B (1< Fold <2)”.
Taken in the same sequence, the figures for `Cl.NCc1ccc(-c2ccnc3[nH]c(=O)ccc23)c(F)c1F` [Example 13, 5-(4-(aminomethyl)-2,3-difluorophenyl)-1,8-naphthyridin-2(1H)-one hydrochloride] were less than 1000 nM and “A (>2)”.
As for `NS(=O)(=O)Nc1ccc(Nc2ccnc3[nH]c(=O)ccc23)cc1` [Example 97, N-(4-((7-oxo-7,8-dihydro-1,8-naphthyridin-4-yl)amino)phenyl)sulfamide dihydrochloride], the concentration for half-maximal inhibition (IC50) in assay [1] was less than 1000 nM. Besides, in assay [2], the “Cellular activity: increase in IRF3 … as fold” value is given as “B (1< Fold <2)”.
